The source of these data is patent US20060079453A1, “Hla binding peptides and their uses” (priority 2002, published 2006).

Holding throughout (test): biochemical
Type in all cases: binding

For assay [1], the target named is HLA-DR DRB1*0901 (DR9) (Homo sapiens, UniProt P01903+P01911, A100R/A103E/D57H/D86V/F55Y/F60I/F76Y/I96F/K127E/L162R/M171V/P40D/Q125H/Q99R/R33Q/R42F/S133A/S66N/T210M/V115G/W38K/Y107V/Y59G/Y89S).
The target of assay [2] is HLA-DR DRB1*0401 (DR4) (Homo sapiens, UniProt P01903+P01911, A100K/A169T/F76Y/I96L/K127E/L162R/M171V/N62H/P40V/Q125Y/R42H/S133A/S149N/S66Y/V115G/V209L/W38E).
In assay [3] the target is HLA-DR DRB1*0405 (DR4) (Homo sapiens, UniProt P01903+P01911, A100R/A169T/D86S/F76Y/I96L/K127E/L162R/M171V/N62H/P40V/Q125Y/R42H/S133A/S149N/S66Y/V115G/V209L/W38E).
Assay [4] concerns the target HLA-DR DRB1*0701 (DR7) (Homo sapiens, UniProt P01903+P01911, A100R/A102G/A103Q/D57E/D86V/E43K/F76Y/K127E/L162R/M171V/P40G/Q125H/Q99D/R33Q/R42Y/R54Q/S133A/S66F/T210M/V115G/Y107V/Y59L/Y89S).
Assay [5] deals with HLA-DR DRB1*0301 (DR3) (Homo sapiens, UniProt P01903+P01911, A100K/A102G/A103R/A169T/F55Y/I96L/K41T/L162R/M171V/P40S/Q125H/Q178H/Q39Y/R42S/S66N/T106N/T262R/W38E/Y61H).
Assay [6] deals with HLA-DR DRB1*0802 (DR8) (Homo sapiens, UniProt P01903+P01911, A100R/A103L/A169T/F76Y/H45Y/I96F/K41T/L162R/M171V/P40S/Q125H/Q178H/Q39Y/Q99D/R218S/R42G/S66Y/V115G/W38E).
Assay [7] deals with HLA-DR DRB1*1302 (DR13) (Homo sapiens, UniProt P01903+P01911, A100E/A169T/K41T/L162R/M171V/P40S/Q125H/Q178H/Q39Y/Q99D/R42S/S66N/T262R/V115G/W38E/Y61H).
The target of assay [8] is HLA-DR DRB1*1101 (DR11) (Homo sapiens, UniProt P01903+P01911, A100R/A169T/A87E/I96F/K41T/L162R/M171V/P40S/Q125H/Q178H/Q39Y/Q99D/R42S/S66Y/T262R/V115G/W38E).
Assay [9] deals with HLA-DR DRB1*1501 (DR15) (Homo sapiens, UniProt P01903+P01911).
Assay [10] deals with HLA-DR DRB1*0101 (DR1) (Homo sapiens, UniProt P01903+P01911, A100R/D57E/F55L/F60I/F76Y/I96L/L162R/M171V/P40L/Q125E/R42F/V115G/Y59C).
Assay [11] has as its target HLA-DR DRB4*0101 (DR53) (Homo sapiens, UniProt P01903+P13762, G164S).
The target of assay [12] is HLA-DR DRB5*0101 (DR51) (Homo sapiens, UniProt P01903+Q30154). The settings on record: DRB5 *0101.

Where two headings read alike, the source gives them in different places. No end group written: not given here.

Sequence of HLA-DR DRB1*1302 (DR13) (P01903 26-254 limits assumed, other chains not shown): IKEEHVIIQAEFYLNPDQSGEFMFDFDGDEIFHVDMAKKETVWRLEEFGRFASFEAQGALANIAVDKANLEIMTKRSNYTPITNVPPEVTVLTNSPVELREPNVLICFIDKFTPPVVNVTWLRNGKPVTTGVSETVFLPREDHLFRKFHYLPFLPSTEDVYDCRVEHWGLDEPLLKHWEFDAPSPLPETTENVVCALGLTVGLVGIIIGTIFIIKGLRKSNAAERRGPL
Sequence of HLA-DR DRB1*0301 (DR3) (P01903 26-254 limits assumed, other chains not shown): as above
Sequence of HLA-DR DRB1*1101 (DR11) (P01903 26-254 limits assumed, other chains not shown): as above

Take CCTSICSLYQLENY: the IC50 in assay [1] (read-out: DRB1 *0901) is 29800 nM; in assay [2] (read-out: DRB1 *0401), 8380 nM; in [3] (read-out: DRB1 *0405) it was 629 nM; in assay [4] (read-out: DRB1 *0701) it was 35600 nM; in assay [5] (read-out: DRB1 *0301) it was 71200 nM; in assay [6] (read-out: DRB1 *0802), > 54400 nM.

For the compound QLCFLKKGLGISYGR, the IC50 in assay [1] amounted to 200 nM; in [7], 88 nM; in assay [2] it was 4440 nM; in [3] it was 443 nM; in assay [4], 3630 nM; in [5], 158000 nM. The values for the IC50 in assay [6] and in [8] were 40 nM and 9.5 nM, respectively.

As to FLRIVQTRSVEGSTGF, the IC50 in assay [1] (DRB1 *0901) came out at 778 nM; in assay [7] (DRBI *1302), 1.5 nM; in assay [2] (DRB1 *0401), 11 nM; in assay [3] (DRB1 *0405), 99 nM; in assay [9] (DRBI *1501), 9.8 nM; in [4] (DRB1 *0701) it was 9.8 nM. The figures for the IC50 in assay [5], in [6] and in assay [10] (DRB1 *0101) were 3940 nM, 445 nM and 6.4 nM, respectively.

Regarding `CC[C@H](C)[C@H](N)C(=O)N[C@@H](C)C(=O)NCC(=O)N[C@@H](CC(C)C)C(=O)N[C@@H](Cc1ccccc1)C(=O)N[C@@H](CC(C)C)C(=O)N[C@H](C(=O)N[C@H](C(=O)N[C@@H](CCC(=O)O)C(=O)N[C@@H](C)C(=O)N[C@H](C(=O)N[C@H](C(=O)N[C@@H](C)C(=O)N[C@@H](CC(=O)O)C(=O)N[C@@H](CCCCN)C(=O)O)C(C)C)C(C)C)[C@@H](C)O)[C@@H](C)O`, the IC50 in assay [1] was 409 nM; in [7], > 10300 nM; in assay [2], 13 nM; in assay [11] it was > 26400 nM; in assay [3] it was 67 nM; in assay [9], > 50800 nM. Besides, the IC50 in [4] turned out to be 230 nM; in [6], 3890 nM; in [8], 867 nM; in assay [10], 6.8 nM.

Take YLVTGERGFFYTKYT: the IC50 was 195000 nM in [1] (read-out: DRB1 *0901); > 20500 nM in [2] (read-out: DRB1 *0401); > 30100 nM in assay [3] (read-out: DRB1 *0405); 78 nM in assay [4] (read-out: DRB1 *0701); 4800 nM in [5] (read-out: DRB1 *0301); 4300 nM in assay [6] (read-out: DRB1 *0802). For the same compound, in assay [10] (read-out: DRB1 *0101), the IC50 came to 1150 nM.

As to AYVLLSEKKISSIQS, the IC50 is 3340 nM in assay [1] (DRB1 *0901); 816 nM in [7] (DRBI *1302); 943 nM in assay [2] (DRB1 *0401); 902 nM in assay [11] (DRB4 *0101); 9470 nM in assay [3] (DRB1 *0405); 489 nM in assay [9] (DRBI *1501). Also, the IC50 in [4] (DRB1 *0701) was 3850 nM; in assay [6] it was 27 nM; in assay [8] (DRB1 *1101) it was 51 nM; in assay [12] it was 4520 nM; in assay [10] (DRB1 *0101), 78 nM.

Regarding TLERPKTLSPQKNGV, the IC50 in assay [1] (read-out: DRB1 *0901) is > 300000 nM; in [2] (read-out: DRB1 *0401), > 22500 nM; in assay [3] (read-out: DRB1 *0405) it was > 28600 nM; in assay [4] (read-out: DRB1 *0701), 26000 nM; in assay [5] (read-out: DRB1 *0301) it was 134000 nM; in [6] (read-out: DRB1 *0802), > 75400 nM.

Take `CC[C@H](C)[C@H](NC(=O)[C@H](CCCCN)NC(=O)[C@H](CC(N)=O)NC(=O)[C@@H](NC(=O)[C@@H](NC(=O)[C@H](CC(C)C)NC(=O)[C@@H](NC(=O)[C@H](CO)NC(=O)[C@H](CC(C)C)NC(=O)[C@H](C)N)[C@@H](C)O)C(C)C)C(C)C)C(=O)N[C@@H](CCCNC(=N)N)C(=O)NCC(=O)N[C@H](C(=O)N[C@@H](Cc1ccccc1)C(=O)N[C@@H](CCCCN)C(=O)O)[C@@H](C)O`: the IC50 amounted to 18000 nM in assay [1]; 648 nM in assay [2]; 3630 nM in assay [3]; 396 nM in assay [4]; 274 nM in assay [5]; 20 nM in [6]. The compound also returned an IC50 in assay [10] of 75 nM.

For the compound VASLLTTAEVVVTE, the IC50 is 1960 nM in [1] (read-out: DRB1 *0901); 7430 nM in assay [2] (read-out: DRB1 *0401); 6520 nM in assay [3] (read-out: DRB1 *0405); 369 nM in [4] (read-out: DRB1 *0701); 136000 nM in assay [5] (read-out: DRB1 *0301); > 118000 nM in assay [6] (read-out: DRB1 *0802).

For the compound ALSTLVLNRLKVGLQ, the IC50 in assay [1] (DRB1 *0901) worked out at 2170 nM; in assay [7] (DRBI *1302), 4.6 nM; in assay [2] (DRB1 *0401), 517 nM; in assay [11] (DRB4 *0101) it was 17 nM; in [3] (DRB1 *0405), 2170 nM; in assay [9] (DRBI *1501), 191 nM. Moreover, the IC50 in assay [4] (DRB1 *0701) came to 647 nM; in assay [6], 4 nM; in [8] (DRB1 *1101) it was 9.1 nM; in [12] it was 3.9 nM; in assay [10] (DRB1 *0101) it was 49 nM.
